Source: BindingDB's records for doi:10.1016/j.bmc.2011.01.052 (Kinki University, 2011)
pIC50: −log10 of the molar value.

experiment: Inhibition of rat intestinal maltase

`OC[C@@H](O)[C@@H](O)[C@H](O)[C@H](O)C[S@@+]1C[C@@H](O)[C@H](O)[C@H]1CO` [(1R,2R,3S,4S)-3,4-dihydroxy-2-(hydroxymethyl)-1-((2S,3S,4R,5R)-2,3,4,5,6-pentahydroxyhexyl)tetrahydro-1H-thiophenium chloride] and `OC[C@@H]1[C@@H](O)[C@H](O)C[S@+]1C[C@@H](O)[C@@H](O)[C@H](O)[C@@H](O)CO` [(1R,2R,3S,4S)-3,4-dihydroxy-2-(hydroxymethyl)-1-((2S,3S,4R,5S)-2,3,4,5,6-pentahydroxyhexyl)tetrahydro-1H-thiophenium chloride] are within 0.2 log units of each other in pIC50: 5.37 for the first, 5.29 for the second.

Compared with `OC[C@@H]1[C@@H](O)[C@H](O)C[S@+]1C[C@@H](O)[C@@H](O)[C@H](O)[C@H](O)[C@@H](O)CO` [(2R,3S,4S)-1-[(2S,3S,4R,5R,6S)-2,3,4,5,6,7-hexahydroxyheptyl]-3,4-dihydroxy-2-(hydroxymethyl)tetrahydrothiophenium (non-preferred name)], `OC[C@@H]1[C@@H](O)[C@H](O)C[S@+]1C[C@@H](O)[C@H](O)[C@H](O)[C@@H](O)CO` [1,4-Dideoxy-1,4-{(R)-[(2S,3R,4R,5S)-2,3,4,5,6-pentahydroxyhexyl]episulfoniumylidene}-D-arabinitol chloride] is 0.57 log units higher in pIC50: 5.32 for the first, 5.89 for the second. The second is the more potent here.

Compared with `O=S(=O)([O-])O[C@@H]([C@H](O)[C@@H](O)CO)[C@H](O)C[S@@+]1C[C@@H](O)[C@H](O)[C@H]1CO` [ponkoranol], `OC[C@H](O)C[S@@+]1C[C@@H](O)[C@H](O)[C@H]1CO` [Neosalaprinol] is lower in pIC50: 5.49 for the first, less than 3.42 for the second. The first is the more potent here.

Work on `OC[C@@H](O)C[S@@+]1C[C@@H](O)[C@H](O)[C@H]1CO` [1,4-dideoxy-1,4-{(R)-[(2S)-2,3-dihydro-xypropyl]episulfoniumylidene}-D-arabinitol Chloride] yielded a pIC50 of 3.98.
